From article PMC8072931, “Thermodynamic Evaluation of the Interactions between Anticancer Pt(II) Complexes and Model Proteins” (Molecules, 2021) come the findings set out here.

The target of test [1] is T1, hen egg-white lysozyme (HEWL) (Gallus gallus, UniProt P00698).
T1 construct: gene LYZ
Kind of test: UV-Vis absorbance titration (binding constant K), […]; DSC; ESI-MS. As to conditions: read-out: K (M^-1) ^1.

The target in test [2] is T1, hen egg-white lysozyme (HEWL). As to the kind of experiment: UV-Vis absorbance titration (binding constant K), […]; DSC (no adduct seen in ESI-MS). The following applies: read-out: K (M^-1) ^1.

T1 sequence (P00698 19-147): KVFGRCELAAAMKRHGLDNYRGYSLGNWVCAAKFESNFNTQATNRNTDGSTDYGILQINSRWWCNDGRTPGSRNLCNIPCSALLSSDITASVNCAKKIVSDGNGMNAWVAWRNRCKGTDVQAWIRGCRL

Turning to `O=S(=O)(O)C(F)(F)F.[Cl][Pt-2]12[n+]3ccccc3-c3cc(-c4ccccc4)cc([n+]31)-c1cccc[n+]12` [compound 1, [PtCl(4′-phenyl-2,2′:6′,2″-terpyridine)](CF3SO3)], in test [1], the Kd is 58.8 µM.

Turning to `O=S(=O)(O)C(F)(F)F.[I][Pt-2]12[n+]3ccccc3-c3cc(-c4ccccc4)cc([n+]31)-c1cccc[n+]12` [compound 2, [PtI(4′-phenyl-2,2′:6′,2″-terpyridine)](CF3SO3)], in test [2], the Kd was determined as 83.3 µM.
